Reference: PubChem BioAssay (NCI)
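A five-concentration, 48-hour dose response in 96-well plates underlies each endpoint, interpolated linearly between surrounding concentrations. TGI marks complete inhibition of growth.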

How the values were obtained:
Test in all cases: NCI anticancer screen, dose series, 48 h
NCI/ADR-RES ovarian = test system: NCI/ADR-RES ovarian
A498 renal = test system: A498 renal
NCI-H23 lung = test system: NCI-H23 lung
MDA-N = test system: MDA-N
MALME-3M melanoma = test system: MALME-3M melanoma
HCT-116 colon = test system: HCT-116 colon
SF-295 CNS = test system: SF-295 CNS
K-562 leukemia = test system: K-562 leukemia
CAKI-1 renal = test system: CAKI-1 renal
SNB-75 CNS = test system: SNB-75 CNS
SNB-19 CNS = test system: SNB-19 CNS
TK-10 renal = test system: TK-10 renal
HCT-15 colon = test system: HCT-15 colon
OVCAR-3 ovarian = test system: OVCAR-3 ovarian
NCI-H460 lung = test system: NCI-H460 lung
U251 CNS = test system: U251 CNS
SK-MEL-2 melanoma = test system: SK-MEL-2 melanoma
A549 NSCLC = test system: A549 NSCLC
HCC-2998 colon = test system: HCC-2998 colon
KM12 colon = test system: KM12 colon
PC-3 prostate = test system: PC-3 prostate
NCI-H226 lung = test system: NCI-H226 lung
786-0 renal = test system: 786-0 renal
SW-620 colon = test system: SW-620 colon
UO-31 renal = test system: UO-31 renal
MDA-MB-435 = test system: MDA-MB-435
MDA-MB-231 breast = test system: MDA-MB-231 breast
OVCAR-4 ovarian = test system: OVCAR-4 ovarian
IGROV1 ovarian = test system: IGROV1 ovarian
SK-MEL-28 melanoma = test system: SK-MEL-28 melanoma
ACHN renal = test system: ACHN renal
EKVX NSCLC = test system: EKVX NSCLC
SF-268 CNS = test system: SF-268 CNS
LOX IMVI melanoma = test system: LOX IMVI melanoma
SK-OV-3 ovarian = test system: SK-OV-3 ovarian
M14 melanoma = test system: M14 melanoma
SN12C renal = test system: SN12C renal
HS 578T breast = test system: HS 578T breast
DU-145 prostate = test system: DU-145 prostate
HOP-62 NSCLC = test system: HOP-62 NSCLC
UACC-257 melanoma = test system: UACC-257 melanoma
CCRF-CEM leukemia = test system: CCRF-CEM leukemia
SK-MEL-5 melanoma = test system: SK-MEL-5 melanoma
SF-539 CNS = test system: SF-539 CNS
MCF7 breast = test system: MCF7 breast
HT29 colon = test system: HT29 colon
BT-549 breast = test system: BT-549 breast
OVCAR-8 ovarian = test system: OVCAR-8 ovarian
HL-60(TB) leukemia = test system: HL-60(TB) leukemia
T-47D breast = test system: T-47D breast
RPMI-8226 leukemia = test system: RPMI-8226 leukemia
UACC-62 melanoma = test system: UACC-62 melanoma
RXF 393 renal = test system: RXF 393 renal
HOP-92 NSCLC = test system: HOP-92 NSCLC
OVCAR-5 ovarian = test system: OVCAR-5 ovarian
COLO 205 colon = test system: COLO 205 colon

Measured: TGI

CN(C)CC(O)CNC(=O)Nc1ccccc1 (stereo unspecified)
> 100 µM: all assays above
